These compounds were tested against T1, Alpha glucosidase (Homo sapiens, UniProt O43451+P10253+P14410+Q2M2H8) (assay: Inhibition of alpha-glucosidase (unknown origin)).
Assay type: protein assay

IC50 [µM] | Ki [µM] | Structure (SMILES)
15 | 14 | CCOc1ccccc1NC(=O)Cn1cc(Cn2c(-c3cccc(Br)c3)nc(-c3ccccc3)c2-c2ccccc2)nn1
3.4 |  | COc1ccc(Cc2nnc(-c3ccc(Cl)cc3)n2CC(=O)NNC(=S)Nc2ccc(Cl)cc2)cc1
20 to 292 |  | c1ccc(-c2[nH]c3ccccc3c2C(c2ccc(-c3nnc(-c4c[nH]c5ccccc45)o3)cc2)c2c(-c3ccccc3)[nH]c3ccccc23)cc1
4.3 to 43 |  | O=C(C[C@@H](c1cccs1)c1c[nH]c2ccccc12)c1ccc2ccccc2c1

What follows are compounds tested against T1, Alpha glucosidase (assay: Inhibition of alpha-glucosidase (unknown origin) using p-nitrophenyl-alpha-d-glucopyranoside as substrate preincubated for 15 mins followed by substrate addition measured after 30 mins).
Assay type: protein assay

Structure (SMILES) | IC50 [µM]
Cc1ccc(-c2csc(N/N=C3\C(=O)Nc4ccc(F)cc43)n2)cc1 | 5.3 to 35
Cc1ccc2c(c1)/C(=N/Nc1nc(-c3ccc(O)cc3)cs1)C(=O)N2 | 5.3 to 35
CCCn1cc(C2(c3cn(CCC)c4ccccc34)C(=O)Nc3ccccc32)c2ccccc21 | 5.9 to 145
COc1ccc(-c2csc(NC(=O)CSc3nnc(-c4ccccc4)c(-c4ccccc4)n3)n2)cc1 | 2.8 to 14
O=C(CSc1nnc(-c2ccc(F)cc2)c(-c2ccc(F)cc2)n1)Nc1nc(-c2ccc(Br)cc2)cs1 | 2.8 to 14
O=C1Nc2ccccc2C1(c1cn(Cc2ccccc2F)c2ccccc12)c1cn(Cc2ccccc2F)c2ccccc12 | 5.9
O=C(CSc1nnc(-c2ccccc2)c(-c2ccccc2)n1)Nc1nc(-c2ccccc2)cs1 | 2.8 to 14
CC(C)Cn1cc(C2(c3cn(CC(C)C)c4ccccc34)C(=O)Nc3ccccc32)c2ccccc21 | 5.9 to 145
O=c1ccc2ccc(OCC(O)CSc3nnc(-c4ccc(F)cc4)c(-c4ccc(F)cc4)n3)cc2o1 (stereo not given) | 32 to 148
O=c1ccc2ccc(OCC(O)CSc3nnc(-c4ccco4)c(-c4ccco4)n3)cc2o1 (stereo not given) | 32 to 148
Cc1ccc(-c2csc(N/N=C3\C(=O)N(C)c4ccccc43)n2)cc1 | 5.3 to 35
O=C(CSc1nnc(-c2ccc(F)cc2)c(-c2ccc(F)cc2)n1)Nc1nc(-c2ccc(F)cc2)cs1 | 2.8 to 14
O=c1oc2ccccc2cc1OCC(O)CSc1nnc(-c2ccco2)c(-c2ccco2)n1 (stereo not given) | 32 to 148
O=C(CSc1nnc(-c2ccc(Br)cc2)c(-c2ccc(Br)cc2)n1)Nc1nc(-c2ccc(F)cc2)cs1 | 2.8 to 14
O=c1ccc2ccc(OCC(O)CSc3nnc(-c4ccccc4)c(-c4ccccc4)n3)cc2o1 (stereo not given) | 32 to 148
O=c1ccc2ccc(OCC(O)CSc3nnc(-c4cccc(F)c4)c(-c4cccc(F)c4)n3)cc2o1 (stereo not given) | 32 to 148
Cc1ccc(-c2csc(N/N=C3\C(=O)Nc4c(C)cc(C)cc43)n2)cc1 | 5.3 to 35
COc1cc(Br)ccc1O[C@H](C)Cn1cc(-c2ccc(F)cc2)nn1 | 14 to 218
COc1cc(-c2ccc(F)cc2)ccc1O[C@H](C)Cn1cc(-c2ccc(C(F)(F)F)cc2)nn1 | 14 to 218
Cc1ccc(-c2csc(N/N=C3\C(=O)Nc4ccccc43)n2)cc1 | 5.3 to 35
Cc1cc(C)c2c(c1)/C(=N/Nc1nc(-c3ccc(F)cc3)cs1)C(=O)N2 | 5.3 to 35
COc1cc(-c2ccc(C)cc2)ccc1O[C@H](C)Cn1cc(-c2ccc(C(F)(F)F)cc2)nn1 | 14 to 218
CCCCn1cc(C2(c3cn(CCCC)c4ccccc34)C(=O)Nc3ccccc32)c2ccccc21 | 5.9 to 145
COc1ccc(-c2ccc(O[C@H](C)Cn3cc(-c4ccc(C(F)(F)F)cc4)nn3)c(OC)c2)cc1 | 14
Cn1cc(C2(c3cn(C)c4ccccc34)C(=O)Nc3ccccc32)c2ccccc21 | 5.9 to 145
CN1C(=O)/C(=N\Nc2nc(-c3ccc(F)cc3)cs2)c2ccccc21 | 5.3 to 35

Structure (SMILES) | IC50 [µM]
O=C(CSc1nnc(-c2ccccc2)c(-c2ccccc2)n1)Nc1nc(-c2ccc(Cl)cc2)cs1 | 2.8 to 14
COC(=O)c1cn(C[C@@H](C)Oc2ccc(Br)cc2OC)nn1 | 14 to 218
COc1ccc(-c2csc(N/N=C3\C(=O)N(Cc4ccccc4F)c4ccc(C)cc43)n2)cc1 | 5.3 to 35
O=C1Nc2ccc(F)cc2/C1=N/Nc1nc(-c2ccc(F)cc2)cs1 | 5.3 to 35
O=c1oc2ccccc2cc1OCC(O)CSc1nnc(-c2ccc(F)cc2)c(-c2ccc(F)cc2)n1 (stereo not given) | 32 to 148
O=c1oc2ccccc2cc1OCC(O)CSc1nnc(-c2cccc(Br)c2)c(-c2cccc(Br)c2)n1 (stereo not given) | 32
O=C1Nc2ccccc2C1(c1cn(Cc2cccc(F)c2)c2ccccc12)c1cn(Cc2cccc(F)c2)c2ccccc12 | 5.9 to 145
COc1cc(Br)ccc1O[C@H](C)Cn1cc(-c2ccccc2)nn1 | 14 to 218
O=C(CSc1nnc(-c2ccccc2)c(-c2ccccc2)n1)Nc1nc(-c2ccc(Br)cc2)cs1 | 2.8 to 14
Cc1cc(C)c2c(c1)/C(=N/Nc1nc(-c3ccc(Br)cc3)cs1)C(=O)N2 | 5.3 to 35
COc1cc(-c2ccc([N+](=O)[O-])cc2)ccc1O[C@H](C)Cn1cc(-c2ccc(C(F)(F)F)cc2)nn1 | 14 to 218
Cc1ccc(-c2csc(N/N=C3\C(=O)N(Cc4ccccc4F)c4ccc(C)cc43)n2)cc1 | 5.3 to 35
CC(C)n1cc(C2(c3cn(C(C)C)c4ccccc34)C(=O)Nc3ccccc32)c2ccccc21 | 5.9 to 145
COc1ccc(-c2csc(NC(=O)CSc3nnc(-c4ccc(Br)cc4)c(-c4ccc(Br)cc4)n3)n2)cc1 | 2.8
O=C(CSc1nnc(-c2ccc(Br)cc2)c(-c2ccc(Br)cc2)n1)Nc1nc(-c2ccc(Br)cc2)cs1 | 2.8 to 14
O=C(CSc1nnc(-c2ccc(F)cc2)c(-c2ccc(F)cc2)n1)Nc1nc(-c2ccccc2)cs1 | 2.8 to 14
O=C(CSc1nnc(-c2ccccc2)c(-c2ccccc2)n1)Nc1nc(-c2ccc(F)cc2)cs1 | 2.8 to 14
Cc1ccc(-c2csc(NC(=O)CSc3nnc(-c4ccccc4)c(-c4ccccc4)n3)n2)cc1 | 2.8 to 14
O=C1Nc2ccccc2/C1=N/Nc1nc(-c2ccc(F)cc2)cs1 | 5.3 to 35
O=C1Nc2ccc(Cl)cc2/C1=N/Nc1nc(-c2ccc(Br)cc2)cs1 | 5.3 to 35
COc1cc(Br)ccc1O[C@H](C)Cn1cc(-c2ccc(C(F)(F)F)cc2)nn1 | 14 to 218
O=C1Nc2ccccc2C1(c1cn(Cc2ccccc2)c2ccccc12)c1cn(Cc2ccccc2)c2ccccc12 | 5.9 to 145
O=C(CSc1nnc(-c2ccc(Br)cc2)c(-c2ccc(Br)cc2)n1)Nc1nc(-c2ccccc2)cs1 | 2.8 to 14
O=C1Nc2ccccc2/C1=N/Nc1nc(-c2ccc(Cl)cc2)cs1 | 5.3 to 35
COc1ccc(-c2csc(N/N=C3\C(=O)N(C)c4ccccc43)n2)cc1 | 5.3 to 35

Results, then the compound that gave them:

IC50 [µM] | Structure (SMILES)
5.9 to 145 | Cc1ccc2c(c1)C(c1c[nH]c3ccccc13)(c1c[nH]c3ccccc13)C(=O)N2
0.1 to 5.1 | Cc1ccc(C(c2c[nH]c3ccc(C(=O)NNS(=O)(=O)c4cc(Cl)cc(Cl)c4)cc23)c2c[nH]c3ccc(C(=O)NNS(=O)(=O)c4cc(Cl)cc(Cl)c4)cc23)cc1
0.1 to 5.1 | Cc1ccc(C(c2c[nH]c3ccc(C(=O)NNS(=O)(=O)c4ccc(Cl)c(Cl)c4)cc23)c2c[nH]c3ccc(C(=O)NNS(=O)(=O)c4ccc(Cl)c(Cl)c4)cc23)cc1
2.8 to 14 | O=C(CSc1nnc(-c2ccc(F)cc2)c(-c2ccc(F)cc2)n1)Nc1nc(-c2ccc(Cl)cc2)cs1
2.8 to 14 | Cc1ccc(-c2csc(NC(=O)CSc3nnc(-c4ccc(F)cc4)c(-c4ccc(F)cc4)n3)n2)cc1
0.1 to 5.1 | Cc1ccc(C(c2c[nH]c3ccc(C(=O)NNS(=O)(=O)c4cccc(Cl)c4Cl)cc23)c2c[nH]c3ccc(C(=O)NNS(=O)(=O)c4cccc(Cl)c4Cl)cc23)cc1
0.1 to 5.1 | Cc1ccc(C(c2c[nH]c3ccc(C(=O)NNS(=O)(=O)c4cc(Cl)ccc4Cl)cc23)c2c[nH]c3ccc(C(=O)NNS(=O)(=O)c4cc(Cl)ccc4Cl)cc23)cc1
0.1 to 5.1 | Cc1ccc(C(c2c[nH]c3ccc(C(=O)NNS(=O)(=O)c4ccccc4Cl)cc23)c2c[nH]c3ccc(C(=O)NNS(=O)(=O)c4ccccc4Cl)cc23)cc1
0.1 to 5.1 | Cc1ccc(C(c2c[nH]c3ccc(C(=O)NNS(=O)(=O)c4ccc(C)cc4)cc23)c2c[nH]c3ccc(C(=O)NNS(=O)(=O)c4ccc(C)cc4)cc23)cc1
0.1 to 5.1 | Cc1ccc(C(c2c[nH]c3ccc(C(=O)NNS(=O)(=O)c4ccccc4Br)cc23)c2c[nH]c3ccc(C(=O)NNS(=O)(=O)c4ccccc4Br)cc23)cc1
2.1 | Cc1ccc(C(c2c[nH]c3ccc(C(=O)NNS(=O)(=O)c4ccccc4[N+](=O)[O-])cc23)c2c[nH]c3ccc(C(=O)NNS(=O)(=O)c4ccccc4[N+](=O)[O-])cc23)cc1
5.3 | Cc1ccc2c(c1)/C(=N/Nc1nc(-c3ccc(O)cc3)cs1)C(=O)N2Cc1ccccc1F
2.1 | Cc1ccc(C(c2c[nH]c3ccc(C(=O)NNS(=O)(=O)c4cccc([N+](=O)[O-])c4)cc23)c2c[nH]c3ccc(C(=O)NNS(=O)(=O)c4cccc([N+](=O)[O-])c4)cc23)cc1
5.9 to 145 | O=C1Nc2ccccc2C1(c1cn(Cc2ccccc2Cl)c2ccccc12)c1cn(Cc2ccccc2Cl)c2ccccc12
5.9 to 145 | O=C1Nc2ccccc2C1(c1c[nH]c2ccccc12)c1c[nH]c2ccccc12
0.3 to 2.5 | Cc1ccc(C(c2c[nH]c3ccc(C(=O)NNS(=O)(=O)c4cc(Cl)c(Cl)cc4Cl)cc23)c2c[nH]c3ccc(C(=O)NNS(=O)(=O)c4cc(Cl)c(Cl)cc4Cl)cc23)cc1
0.1 to 5.1 | Cc1ccc(C(c2c[nH]c3ccc(C(=O)NNS(=O)(=O)c4ccc(Br)cc4)cc23)c2c[nH]c3ccc(C(=O)NNS(=O)(=O)c4ccc(Br)cc4)cc23)cc1
5.9 to 145 | O=C1Nc2ccc(Br)cc2C1(c1c[nH]c2ccccc12)c1c[nH]c2ccccc12
0.1 to 5.1 | Cc1ccc(C(c2c[nH]c3ccc(C(=O)NNS(=O)(=O)c4ccc(Cl)cc4Cl)cc23)c2c[nH]c3ccc(C(=O)NNS(=O)(=O)c4ccc(Cl)cc4Cl)cc23)cc1
2.8 to 14 | O=C(CSc1nnc(-c2ccc(Br)cc2)c(-c2ccc(Br)cc2)n1)Nc1nc(-c2ccc(Cl)cc2)cs1
2.8 to 14 | Cc1ccc(-c2csc(NC(=O)CSc3nnc(-c4ccc(Br)cc4)c(-c4ccc(Br)cc4)n3)n2)cc1
2.1 | Cc1ccc(C(c2c[nH]c3ccc(C(=O)NNS(=O)(=O)c4ccc([N+](=O)[O-])cc4)cc23)c2c[nH]c3ccc(C(=O)NNS(=O)(=O)c4ccc([N+](=O)[O-])cc4)cc23)cc1
0.5 | Cc1ccc(C(c2c[nH]c3ccc(C(=O)NNS(=O)(=O)c4ccc([N+](=O)[O-])cc4[N+](=O)[O-])cc23)c2c[nH]c3ccc(C(=O)NNS(=O)(=O)c4ccc([N+](=O)[O-])cc4[N+](=O)[O-])cc23)cc1
5.9 to 145 | O=C1Nc2ccccc2C1(c1cn(Cc2ccc(Br)cc2)c2ccccc12)c1cn(Cc2ccc(Br)cc2)c2ccccc12

Reference: ChEMBL document CHEMBL4304757, “Synthetic heterocyclic candidates as promising α-glucosidase inhibitors: An overview” (Eur J Med Chem, 2019)
